Data set [1] deals with T1, AbThiL (ThiL, thiamine monophosphate kinase) (Acinetobacter baumannii, UniProt A0A0D5YC82).
T1 construct: non-cleavable N-terminal His6-tag (vector pBG1861), expressed in E. coli Rosetta BL21(DE3)R3; modelled Met1/Ala2 to Phe304/C-terminal Ala305; homodimer, active site at dimer interface
T1 sequence (A0A0D5YC82 1-305): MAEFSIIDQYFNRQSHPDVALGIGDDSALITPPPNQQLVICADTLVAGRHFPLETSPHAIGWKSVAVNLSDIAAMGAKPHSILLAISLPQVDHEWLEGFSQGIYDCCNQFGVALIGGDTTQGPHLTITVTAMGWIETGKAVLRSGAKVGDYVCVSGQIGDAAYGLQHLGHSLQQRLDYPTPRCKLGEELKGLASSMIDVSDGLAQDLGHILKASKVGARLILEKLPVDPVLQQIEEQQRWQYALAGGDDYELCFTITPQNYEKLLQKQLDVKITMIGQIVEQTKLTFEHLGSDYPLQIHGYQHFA
Description: X-ray crystallography (co-crystal), […] A monoclinic and […] A orthorhombic. In kind it is binding. The settings on record: 5 mM ADP/TPP/MgCl2, paper assigns 5CM7, 5D9U and 6MFM to the two crystal forms inconsistently.

The target in data set [2] is T1, AbThiL (ThiL, thiamine monophosphate kinase). Description: X-ray crystallography (co-crystal), […] A. In kind it is binding. Conditions: AMPPNP alone, 5 mM AMPPNP/MgCl2, NaBr; ATP site; also with TMP in 5DD7.
For data set [3] the target is unchanged. The experiment in a line: X-ray crystallography (overnight soak of AMPPNP co-crystals), […] A. It counts as binding. Conditions: ternary complex with AMPPNP; Mg2+; 5 mM AMPPNP/TMP/MgCl2; K/Na-tartrate, HEPES pH 7.5; active site at dimer interface.
Data set [4] concerns the molecule itself. The experiment in a line: crystal structure; AbThiL co-crystallised or soaked with AMPPNP, AMPPNP/TMP or ADP/TPP and MgCl2; orthorhombic (P21212) and monoclinic (P21) crystal forms; sitting drops at 287 K.

For the molecule `Nc1ncnc2c1ncn2[C@@H]1O[C@H](COP(=O)(O)OP(=O)(O)O)[C@@H](O)[C@H]1O` [ADP], in data set [1] (ternary complex with TPP, ATP/ADP site), the “X-ray crystallography (co-crystal), 1.55 A monoclinic and 1.90 A orthorhombic” value was “with the products ADP/TDP (orthorhombic and monoclinic)”.
As to `Nc1ncnc2c1ncn2[C@@H]1O[C@H](COP(=O)(O)OP(=O)(O)NP(=O)(O)O)[C@@H](O)[C@H]1O` [AMPPNP], the “X-ray crystallography (co-crystal), 1.75 A” value in data set [2] is “AbThiL in complex with AMPPNP alone (orthorhombic)”.
Turning to `Cc1ncc(C[n+]2csc(CCOP(=O)(O)O)c2C)c(N)n1` [TMP], in data set [3], the “X-ray crystallography (overnight soak of AMPPNP co-crystals), 1.70 A” value is recorded as “AbThiL in complex with AMPPNP alone (orthorhombic), the substrate analogs AMPPNP/TMP (orthorhombic)”.
`Cc1ncc(C[n+]2csc(CCOP(=O)(O)OP(=O)(O)O)c2C)c(N)n1` [TPP]: the “X-ray crystallography (co-crystal), 1.55 A monoclinic and 1.90 A orthorhombic” value in data set [1] (ternary complex with ADP, TMP/TPP site) is “with the products ADP/TDP (orthorhombic and monoclinic)”.

B1: Thiamine monophosphate kinase (ThiL) from Acinetobacter baumannii (enzyme, UniProt A0A0D5YC82 1-305, looked up)
chain: T1 sequence (A0A0D5YC82 1-305)
notes: Thiamine monophosphate kinase (ThiL), Acinetobacter baumannii strain AB5075-UW, gene amplified from genomic DNA; The vector pBG1861 provides a non-cleavable N-terminal His6-tag; also called AbThiL; not shown: His6, N-terminal, kept
The stoichiometry N is a count of units in the complex or per binding partner. With B1, the “stoichiometry N” value in data set [4] worked out at 2.

The values are drawn from paper PMC6416309, “Crystal structures of thiamine monophosphate kinase from Acinetobacter baumannii in complex with substrates and products” (Scientific Reports, 2019).
